Blank lines part the entries; values can stand above or below the compound they belong to.
Tests used:
[1] = Cmax in ferret; type: ADME, organism-based, Mustela putorius furo; conditions: in vivo
[2] = test system: Blood; assay: Inhibition of TNFalpha release in human whole blood; type: functional, tissue-based; conditions: read-out: IC50
[3] = test system: Mus musculus; assay: Antiinflammatory activity in po dosed mouse assessed as inhibition of arachidonic acid-induced ear edema at 30 umol/kg; type: functional; set-up: scale not given: the % may be the effect or the level left
[4] = target: Phosphodiesterase 3 (Homo sapiens, UniProt Q14432+Q13370); assay: Inhibition of PDE3 in human platelet
[5] = target: T1, Phosphodiesterase 4 (Homo sapiens, UniProt P27815+Q08499+Q07343+Q08493); assay: Inhibition of PDE4 in human neutrophil; type: protein assay
[6] = test system: Cavia porcellus; assay: Inhibition of eosinophil infiltration in guinea pig at 30 umol/kg, ip; type: functional
[7] = Oral bioavailability in rat; type: ADME, organism-based; conditions: in vivo
[8] = Displacement of [3H]rolipram from PDE4 by RBA
[9] = Inhibition of PDE4
[10] = target: T1, Phosphodiesterase 4; assay: Inhibition of PDE4 in human eosinophil; type: protein assay
[11] = target: 3',5'-cyclic-AMP phosphodiesterase 4A (Homo sapiens, UniProt P27815); assay: Inhibition of human PDE4A
[12] = test system: Blood; assay: Inhibition of fMLP-induced LTB4 biosynthesis in human whole blood; type: functional, tissue-based
[13] = target: 3',5'-cyclic-AMP phosphodiesterase 4D (Homo sapiens, UniProt Q08499); assay: Inhibition of human PDE4D
[14] = target: 3',5'-cyclic-AMP phosphodiesterase 4C (Homo sapiens, UniProt Q08493); assay: Inhibition of human PDE4C
[15] = test system: Blood; assay: Inhibition of LPS-induced TNFalpha release in human whole blood; type: functional, tissue-based
[16] = Selectivity for PDE4D over PDE4A
[17] = test system: Rattus norvegicus; assay: Inhibition of gastric emptying in po dosed rat; type: functional; conditions: Stomach, read-out: ID50 (the source's name)
[18] = Selectivity for PDE4D over PDE4C
[19] = Selectivity for PDE4D over PDE4B
[20] = Displacement of [3H]rolipram from PDE4 at 10 uM by RBA
[21] = test system: Rhesus monkey; assay: Reduction in eosinophil response to antigen challenge in atopic monkey at 10 mg/kg, po; type: functional, Macaca mulatta; set-up: scale not given: the % may be the effect or the level left
[22] = test system: Rhesus monkey; assay: Reduction in neutrophil response to antigen challenge in atopic monkey at 10 mg/kg, po; type: functional, Macaca mulatta; set-up: scale not given: the % may be the effect or the level left
[23] = test system: Rhesus monkey; assay: Reduction in IL1-beta response to antigen challenge in atopic monkey at 10 mg/kg, po; type: functional, Macaca mulatta; set-up: scale not given: the % may be the effect or the level left
[24] = test system: Cavia porcellus; assay: Inhibition of aerosolized antigen-induced airway obstruction in po dosed guinea pig; type: functional
[25] = Binding affinity to PDE4 catalytic domain
[26] = Inhibition of PDE4 in dog trachea; type: tissue-based, Canis lupus familiaris
[27] = test system: Rattus norvegicus; assay: Inhibition of TNFalpha production in po dosed rat; type: functional; conditions: read-out: ID50 (the source's name)
[28] = test system: Rattus norvegicus; assay: Inhibition of SRS-A-induced bronchoconstriction in rat at 10 mg/kg; type: functional
[29] = test system: Cavia porcellus; assay: Antispasmogenic activity in iv dosed guinea pig assessed as reduction of antigen-induced bronchoconstriction; type: functional
[30] = Ratio of IC50 for PDE3 to IC50 for PDE4
[31] = test system: Cavia porcellus; assay: Antispasmogenic activity in intradermally dosed guinea pig assessed as reduction of histamine-induced bronchoconstriction; type: functional
[32] = species: Mustela putorius furo; assay: Plasma concentration in ferret; type: ADME, organism-based; conditions: in vivo
[33] = Oral bioavailability in dog; type: ADME, organism-based, Canis lupus familiaris; conditions: in vivo

Chain of 3',5'-cyclic-AMP phosphodiesterase 4D (Q08499 whole entry): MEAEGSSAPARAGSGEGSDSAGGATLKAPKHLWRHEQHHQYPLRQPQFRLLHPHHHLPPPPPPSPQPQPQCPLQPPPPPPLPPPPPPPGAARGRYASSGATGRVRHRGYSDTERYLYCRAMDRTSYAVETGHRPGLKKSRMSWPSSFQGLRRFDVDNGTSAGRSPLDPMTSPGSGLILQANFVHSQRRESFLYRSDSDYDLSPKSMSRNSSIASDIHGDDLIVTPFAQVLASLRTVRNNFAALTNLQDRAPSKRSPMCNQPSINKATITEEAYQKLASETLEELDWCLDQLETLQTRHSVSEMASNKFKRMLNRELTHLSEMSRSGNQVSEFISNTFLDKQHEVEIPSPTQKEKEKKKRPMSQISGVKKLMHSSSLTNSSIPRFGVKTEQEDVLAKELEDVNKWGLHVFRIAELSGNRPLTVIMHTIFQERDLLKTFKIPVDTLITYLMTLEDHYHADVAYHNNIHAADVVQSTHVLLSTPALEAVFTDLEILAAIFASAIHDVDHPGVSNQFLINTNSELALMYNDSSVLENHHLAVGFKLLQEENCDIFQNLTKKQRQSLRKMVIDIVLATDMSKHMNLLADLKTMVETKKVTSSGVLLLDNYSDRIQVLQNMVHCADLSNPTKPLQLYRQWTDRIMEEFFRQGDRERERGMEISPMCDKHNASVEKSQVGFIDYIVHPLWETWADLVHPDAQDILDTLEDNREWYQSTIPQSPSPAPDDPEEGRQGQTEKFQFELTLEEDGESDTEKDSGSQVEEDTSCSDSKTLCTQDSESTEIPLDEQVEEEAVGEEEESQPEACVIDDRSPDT
Chain of 3',5'-cyclic-AMP phosphodiesterase 4C (Q08493 whole entry): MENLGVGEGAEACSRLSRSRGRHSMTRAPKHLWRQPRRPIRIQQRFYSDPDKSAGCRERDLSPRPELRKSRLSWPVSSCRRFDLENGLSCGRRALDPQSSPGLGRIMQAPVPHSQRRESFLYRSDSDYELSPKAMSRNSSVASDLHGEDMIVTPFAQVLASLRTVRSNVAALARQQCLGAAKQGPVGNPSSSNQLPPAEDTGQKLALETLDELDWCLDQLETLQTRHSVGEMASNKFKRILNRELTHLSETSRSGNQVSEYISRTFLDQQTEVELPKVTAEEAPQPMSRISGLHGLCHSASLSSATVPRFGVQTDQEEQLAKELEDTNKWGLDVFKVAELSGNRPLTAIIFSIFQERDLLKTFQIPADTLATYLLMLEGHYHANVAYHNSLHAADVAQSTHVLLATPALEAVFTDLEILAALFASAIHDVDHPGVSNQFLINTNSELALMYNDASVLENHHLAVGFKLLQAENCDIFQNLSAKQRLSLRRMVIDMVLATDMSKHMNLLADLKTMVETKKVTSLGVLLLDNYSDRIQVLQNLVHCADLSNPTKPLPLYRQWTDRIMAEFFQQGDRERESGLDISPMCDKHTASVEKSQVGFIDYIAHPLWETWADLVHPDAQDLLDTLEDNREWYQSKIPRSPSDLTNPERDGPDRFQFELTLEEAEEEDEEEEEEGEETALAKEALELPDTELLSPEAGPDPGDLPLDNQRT
Chain of 3',5'-cyclic-AMP phosphodiesterase 4A (P27815 whole entry): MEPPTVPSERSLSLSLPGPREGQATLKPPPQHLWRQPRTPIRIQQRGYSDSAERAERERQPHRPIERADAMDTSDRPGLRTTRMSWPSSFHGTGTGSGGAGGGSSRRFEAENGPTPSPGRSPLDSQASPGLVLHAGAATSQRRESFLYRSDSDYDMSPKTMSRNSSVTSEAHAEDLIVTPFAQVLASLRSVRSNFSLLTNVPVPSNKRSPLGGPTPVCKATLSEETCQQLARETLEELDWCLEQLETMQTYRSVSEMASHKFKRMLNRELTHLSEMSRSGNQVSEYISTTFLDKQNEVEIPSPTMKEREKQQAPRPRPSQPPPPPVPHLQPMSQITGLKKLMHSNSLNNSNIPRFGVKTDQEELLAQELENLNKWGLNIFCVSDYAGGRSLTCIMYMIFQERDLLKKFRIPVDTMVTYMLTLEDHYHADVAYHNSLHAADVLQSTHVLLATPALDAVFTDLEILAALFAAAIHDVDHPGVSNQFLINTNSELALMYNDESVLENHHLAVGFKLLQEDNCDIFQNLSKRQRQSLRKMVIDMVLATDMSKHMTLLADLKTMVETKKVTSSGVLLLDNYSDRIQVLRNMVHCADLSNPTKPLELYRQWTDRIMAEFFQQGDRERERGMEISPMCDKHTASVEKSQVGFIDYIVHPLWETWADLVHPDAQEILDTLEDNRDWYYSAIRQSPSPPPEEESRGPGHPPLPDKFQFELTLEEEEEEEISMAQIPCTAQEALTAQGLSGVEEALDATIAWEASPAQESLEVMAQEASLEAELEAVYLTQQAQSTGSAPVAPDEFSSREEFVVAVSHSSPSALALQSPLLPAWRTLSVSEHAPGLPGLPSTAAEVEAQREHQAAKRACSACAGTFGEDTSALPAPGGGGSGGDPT

SMILES: COc1ccc(C2=NN(CCCCc3ccc(C4=NNC(=O)CC4C)cc3)C(=O)C3CC=CCC23)cc1Cl (centres undefined)
Activity [3]: 47%
pIC50 [4]: 7.5
pIC50 [5]: 7.8

SMILES: CCc1nn(-c2ccc(F)cc2)c2c1CCN(c1ccccc1)C2=O
IC50 [10]: 30 nM

SMILES: CC(C)C(=O)c1c(C(C)C)nn2ccccc12 [IBUDILAST]
IC50 [11]: 54 nM
IC50 [12]: 2500 nM
IC50 [13]: 166 nM
IC50 [14]: 239 nM
IC50 [15]: 6200 nM

SMILES: COc1ccc([C@]2(C#N)CC[C@@H](C(=O)O)CC2)cc1OC1CCCC1 [CILOMILAST]
Selectivity ratio [16]: 10
ED50 [17]: 4.7 mg/kg
Selectivity ratio [18]: 10
Selectivity ratio [19]: 10
IC50 [9]: 65 nM
IC50 [2]: 840 nM

SMILES: COc1ccc(S(=O)(=O)NC2CCc3ccccc32)cc1OC (centres undefined)
RBA [20]: 14%
IC50 [9]: 6000 nM

SMILES: CCc1nn(C2CCCC2)c2c1CCN(c1ccccc1C)C2=O
Activity [21]: 55%
Activity [22]: 65%
Activity [23]: 82%
ED50 [24]: 2 mg/kg

SMILES: COc1ccc(C2CNC(=O)C2)cc1OC1CCCC1 (centres undefined) [ROLIPRAM]
Ki [25]: 60 nM

SMILES: COc1cc(-c2ccc(=O)[nH]n2)ccc1OC(F)F [ZARDAVERINE]
pIC50 [26]: 6.8
pIC50 [4]: 6.24

SMILES: Cc1noc(/C(=C/c2cccc(-c3cc(C(C)(C)S(C)(=O)=O)cc4cccnc34)c2)c2ccc(S(C)(=O)=O)cc2)n1
IC50 [9]: 3 nM

SMILES: COC(=O)N1CC[C@H](Oc2cccc(Nc3c(C(N)=O)cnc4c3c(C)nn4C)c2)C1
bioavailability [7]: 33%
ED50 [27]: 1 mg/kg
inhibition in vivo at 10 mg/kg [28]: 50%
IC50 [9]: 10 nM

SMILES: COc1cc2c3c(c1)C(c1ccccc1)=N[C@@H](NC(=O)c1cccnc1)C(=O)N3CC2
IC50 [9]: 4300 nM

SMILES: CCc1nn(C2CCCC2)c2c1CCn1c(-c3cccs3)nnc1-2 [TOFIMILAST]
Cp [32]: 152 ng/mL
bioavailability [33]: 3%

SMILES: COc1ccc(C2(Cc3ccncc3)C(=O)N(C(=O)OC(C)(C)C)c3ccccc32)cc1OC1CCCC1 (centres undefined)
Ki [8]: 2800 nM
IC50 [9]: 700 nM

Second part, led by results:

Cmax [1]: 200 nM
IC50 [2]: 8300 nM
SMILES: COc1cccc(-c2cc(Cc3ccncc3)cc3cccnc23)c1

bioavailability [7]: 27%
Ki [8]: 271 nM
IC50 [9]: 37 nM
IC50 [2]: 46 nM
SMILES: Oc1ccc2c(Cc3c(Cl)cncc3Cl)nnc(-c3ccccc3)c2c1
inhibition in vivo at 30 µmol/kg [6]: 34%

Ki [8]: 25 nM
SMILES: COCc1nc2c(OC)ccc(C(=O)Nc3c(Cl)cncc3Cl)c2[nH]1

IC50 [9]: 170 nM
SMILES: COc1ccc(C(=O)Nc2c(Cl)cncc2Cl)c2cccnc12

IC50 [9]: 0.4 nM
SMILES: COCc1cc2c(C(=O)Nc3c(Cl)cncc3Cl)ccc(OC)c2o1

IC50 [9]: 11 nM
SMILES: CNc1nc(C(F)(F)F)nc2c(Cc3ccccc3OC)cnn12

Ratio IC50 [30]: 14000
IC50 [9]: 0.13 nM
SMILES: CCOc1cc2cc(CO)c(CO)c(-c3ccnc(-n4nc(-c5cccnc5)c5ccccc5c4=O)c3)c2cc1OCC
ED50 [29]: 0.063 mg/kg
ED50 [31]: 0.033 mg/kg

Ki [8]: 383 nM
IC50 [9]: 241 nM
IC50 [2]: 72 nM
SMILES: COc1ccc2c(Cc3c(Cl)cncc3Cl)nnc(-n3cncn3)c2c1
inhibition in vivo at 30 µmol/kg [6]: 34%

IC50 [9]: 13 nM
SMILES: CCCc1nc(NC)n2ncc(Cc3ccccc3OC)c2n1
